These results are taken from patent publication US12581252B2, “Substituted pyrrolo[3,4-b]pyridines as PI3K-α inhibitors” (Relay Therapeutics, Inc., priority 2020, dated 2026).

Chain of H1047R PIK3CA enzyme (P42336 whole entry H1047R): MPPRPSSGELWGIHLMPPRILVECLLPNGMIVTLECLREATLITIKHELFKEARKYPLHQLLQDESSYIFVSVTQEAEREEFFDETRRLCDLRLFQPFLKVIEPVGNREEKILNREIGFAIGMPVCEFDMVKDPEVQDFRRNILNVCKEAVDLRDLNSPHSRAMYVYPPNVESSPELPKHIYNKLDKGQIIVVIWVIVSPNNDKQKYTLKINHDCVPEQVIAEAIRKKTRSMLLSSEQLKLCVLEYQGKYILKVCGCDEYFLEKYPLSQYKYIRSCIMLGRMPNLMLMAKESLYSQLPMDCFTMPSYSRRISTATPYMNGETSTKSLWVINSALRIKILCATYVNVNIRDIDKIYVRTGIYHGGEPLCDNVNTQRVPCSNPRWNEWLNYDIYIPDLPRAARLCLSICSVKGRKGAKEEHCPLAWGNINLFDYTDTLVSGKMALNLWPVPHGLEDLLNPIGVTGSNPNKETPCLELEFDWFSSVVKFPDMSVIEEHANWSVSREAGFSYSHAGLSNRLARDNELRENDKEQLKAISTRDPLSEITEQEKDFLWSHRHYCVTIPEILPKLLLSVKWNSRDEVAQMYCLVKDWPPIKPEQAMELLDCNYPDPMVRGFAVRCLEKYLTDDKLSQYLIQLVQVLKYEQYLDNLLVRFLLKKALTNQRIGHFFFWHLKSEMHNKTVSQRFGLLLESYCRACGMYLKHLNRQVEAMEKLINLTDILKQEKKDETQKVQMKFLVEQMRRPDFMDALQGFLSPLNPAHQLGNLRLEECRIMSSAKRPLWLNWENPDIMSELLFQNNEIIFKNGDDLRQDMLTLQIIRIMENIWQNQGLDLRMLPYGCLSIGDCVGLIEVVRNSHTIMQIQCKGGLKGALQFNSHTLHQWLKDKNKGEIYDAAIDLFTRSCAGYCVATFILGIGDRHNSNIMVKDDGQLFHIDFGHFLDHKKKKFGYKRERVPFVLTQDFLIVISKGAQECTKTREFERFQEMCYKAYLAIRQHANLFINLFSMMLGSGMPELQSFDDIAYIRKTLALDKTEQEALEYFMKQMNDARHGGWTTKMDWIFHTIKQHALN
Chain of H1047R PIK3CA enzyme (P27986 whole entry partner): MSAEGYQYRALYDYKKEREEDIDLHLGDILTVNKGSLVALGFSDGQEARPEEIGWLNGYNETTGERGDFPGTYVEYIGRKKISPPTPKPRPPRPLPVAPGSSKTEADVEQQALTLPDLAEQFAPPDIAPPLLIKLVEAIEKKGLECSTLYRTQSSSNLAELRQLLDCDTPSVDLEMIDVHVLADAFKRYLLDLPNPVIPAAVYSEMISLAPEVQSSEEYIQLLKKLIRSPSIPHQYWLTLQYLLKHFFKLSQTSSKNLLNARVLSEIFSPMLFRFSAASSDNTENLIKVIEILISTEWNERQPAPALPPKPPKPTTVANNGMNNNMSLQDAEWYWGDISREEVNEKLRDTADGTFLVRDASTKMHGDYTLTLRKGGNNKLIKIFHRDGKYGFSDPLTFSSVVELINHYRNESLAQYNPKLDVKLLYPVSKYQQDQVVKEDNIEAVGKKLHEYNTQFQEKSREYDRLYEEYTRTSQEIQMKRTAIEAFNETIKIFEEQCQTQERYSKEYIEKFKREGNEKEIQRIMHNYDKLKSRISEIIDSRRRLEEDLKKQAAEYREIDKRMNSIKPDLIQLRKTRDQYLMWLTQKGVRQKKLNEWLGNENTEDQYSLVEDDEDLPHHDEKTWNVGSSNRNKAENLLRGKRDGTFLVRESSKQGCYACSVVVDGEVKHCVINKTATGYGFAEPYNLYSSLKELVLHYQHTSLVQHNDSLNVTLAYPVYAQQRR

The experiment concerns the target H1047R PIK3CA enzyme (Homo sapiens, UniProt P42336, H1047R). Description: ADP-Glo Biochemical PIK3CA Kinase Assay. On the technique in general: ADP-Glo first removes unused ATP, then detects ADP through luciferase.
Consider `O=C1NC(c2cc(F)ccc2Cl)c2c1cc(-c1ccc3ncnn3c1)cc2-n1ccc2c(F)cc(C(F)(F)F)cc2c1=O` (centres unmarked) [Compound I-2016], for which the half-maximal inhibitory concentration (IC50) lay in the range of 1 to 10 µM.

As to `O=C1NC(c2cc(F)ccc2Cl)c2c(COc3ccccc3)cc(-c3ccc4ncnn4c3)cc21` (centres unmarked) [Compound I-2017], the IC50 is 10 to 100 µM.

On to `O=C1NC(c2cc(F)ccc2Cl)c2c1cc(-c1ccc3ncnn3c1)cc2N1CCn2ncnc2C1` (centres unmarked) [Compound I-2018], for which the half-inhibitory concentration (IC50) lay within 10 to 100 µM.

Consider `O=C1NC(c2cc(F)ccc2Cl)c2c1cc(-c1ccc3ncnn3c1)cc2N1CCn2cnnc2C1` (centres unmarked) [Compound I-2019], for which the IC50 is 10 to 100 µM.

For `CN1CCC=C(c2cc(-c3ccc4ncnn4c3)cc3c2C(c2cc(F)ccc2Cl)NC3=O)C1` (centres unmarked) [Compound I-2020], the IC50 was 10 to 100 µM.

For the compound `CN1CC=C(c2cc(-c3ccc4ncnn4c3)cc3c2C(c2cc(F)ccc2Cl)NC3=O)CC1` (centres unmarked) [Compound I-2021], the IC50 is 10 to 100 µM.

Compound `N#CCOc1cc(-c2ccc3ncnn3c2)cc2c1C(c1cc(F)ccc1Cl)NC2=O` (centres unmarked) [Compound I-2022] registered an IC50 of 10 to 100 µM.

Compound `O=C1NC(c2cc(F)ccc2Cl)c2c(NC3CCNCC3)cc(-c3ccc4ncnn4c3)cc21` (centres unmarked) [Compound I-2024] came in with a half-inhibitory concentration (IC50) of 10 to 100 µM.

For the compound `O=C1NC(c2cc(F)ccc2Cl)c2c(Nc3ccncc3)cc(Br)cc21` (centres unmarked) [Compound I-2025], the half-maximal inhibitory concentration (IC50) lay within 10 to 100 µM.

Consider `O=C1NC(c2cc(F)ccc2Cl)c2c(Cn3ccc4ccccc4c3=O)cc(-c3ccc4ncnn4c3)cc21` (centres unmarked) [Compound I-2026], for which the 50% inhibitory concentration (IC50) was 10 to 100 µM.

Regarding `O=C1NC(c2cc(F)ccc2Cl)c2c(NC(=O)[C@H]3C[C@@H](O)C[C@@H](C(F)(F)F)C3)cc(Br)cc21` (some centres unmarked) [Compound I-2027], the IC50 was 10 to 100 µM.

For the compound `O=C1N[C@@H](c2cc(F)ccc2Cl)c2c(NC(=O)[C@@H]3CCC[C@H](C(F)(F)F)C3)cc(-c3ccc4ncnn4c3)cc21` [Compound I-2030], the 50% inhibitory concentration (IC50) lay in the range of 0.5 to 1 µM.

`O=C1N[C@H](c2cc(F)ccc2Cl)c2c(NC(=O)[C@@H]3CCC[C@H](C(F)(F)F)C3)cc(-c3ccc4ncnn4c3)cc21` [Compound I-2031] displayed an IC50 of 1 to 10 µM.

`O=C1NC(c2cc(F)ccc2Cl)c2c(NCC(=O)N3CCCCC3)cc(-c3ccc4ncnn4c3)cc21` (centres unmarked) [Compound I-2038] displayed a concentration for half-maximal inhibition (IC50) of 10 to 100 µM.

`O=C1NC(c2cc(F)ccc2Cl)c2c1cc(-c1ccc3ncnn3c1)cc2N1CCn2cc(C(F)(F)F)nc2C1` (centres unmarked) [Compound I-2039] returned a concentration for half-maximal inhibition (IC50) of 10 to 100 µM.

Regarding `O=C1NC(c2cc(F)ccc2Cl)c2c1cc(-c1ccc3ncnn3c1)cc2N1CCn2c(nnc2C(F)(F)F)C1` (centres unmarked) [Compound I-2040], the IC50 lay within 10 to 100 µM.

Regarding `O=C(Nc1cccc2c1C(C(=O)N1CCCCC1)NC2=O)c1cc(F)cc(C(F)(F)F)c1` (centres unmarked) [Compound I-2041], the IC50 was 10 to 100 µM.

As to `NC1CN(C(=O)Nc2cc(Br)cc3c2C(c2cc(F)ccc2Cl)NC3=O)c2ccccc21` (centres unmarked) [Compound I-2042], the half-maximal inhibitory concentration (IC50) lay in the range of 1 to 10 µM.

Take `O=C1NC(c2cc(F)ccc2Cl)c2c(OC3CCOc4ccccc43)cc(-c3ccc4ncnn4c3)cc21` (centres unmarked) [Compound I-2043]: the IC50 is 10 to 100 µM.

In the case of `O=C(CC1(C(F)(F)F)CC1)Nc1cc(-c2ccc3ncnn3c2)cc2c1C(c1cc(F)ccc1Cl)NC2=O` (centres unmarked) [Compound I-2044], the IC50 fell in the range of 1 to 10 µM.

In turn, `O=C1NC(c2cc(F)ccc2Cl)c2c(NC(=O)C3CCS(=O)(=O)CC3)cc(-c3ccc4ncnn4c3)cc21` (centres unmarked) [Compound I-2045] registered a half-inhibitory concentration (IC50) of 1 to 10 µM.

Compound `O=C1NC(c2cc(F)ccc2Cl)c2c1cc(-c1ccc3ncnn3c1)cc2N1CCN(C(=O)C(F)(F)F)CC1` (centres unmarked) [Compound I-2046] yielded a 50% inhibitory concentration (IC50) of 10 to 100 µM.

In turn, `CC(=O)N1CCN(c2cc(-c3ccc4ncnn4c3)cc3c2C(c2cc(F)ccc2Cl)NC3=O)CC1` (centres unmarked) [Compound I-2047] registered an IC50 of 10 to 100 µM.

For `O=C1NC(c2cc(F)ccc2Cl)c2c1cc(-c1cnn(C(F)F)c1)cc2-c1nc2cc(C(F)(F)F)cc(F)c2[nH]1` (centres unmarked) [Compound I-2048], the half-maximal inhibitory concentration (IC50) fell in the range of 1 to 10 µM.

Turning to `O=C1NC(c2cc(F)ccc2Cl)c2c(Nc3n[nH]c4c(C(F)(F)F)cc(F)cc34)cc(-c3ccc4ncnn4c3)cc21` (centres unmarked) [Compound I-2049], the 50% inhibitory concentration (IC50) is at most 0.1 µM.

Compound `Cn1nc(Nc2cc(-c3ccc4ncnn4c3)cc3c2C(c2cc(F)ccc2Cl)NC3=O)c2cc(F)cc(C(F)(F)F)c21` (centres unmarked) [Compound I-2050] showed a half-inhibitory concentration (IC50) of 0.5 to 1 µM.

On to `O=C(Nc1cccc2c1[C@H](C1CCCCC1)NC2=O)c1cc(F)cc(C(F)(F)F)c1` [Compound I-2052], for which the IC50 fell in the range of 1 to 10 µM.

The compound `O=C(Nc1cccc2c1[C@@H](C1CCCCC1)NC2=O)c1cc(F)cc(C(F)(F)F)c1` [Compound I-2053] displayed a concentration for half-maximal inhibition (IC50) of 10 to 100 µM.

With `O=C(Nc1cccc2c1C(C(=O)NC1CCCCC1)NC2=O)c1cc(F)cc(C(F)(F)F)c1` (centres unmarked) [Compound I-2054], the 50% inhibitory concentration (IC50) was in the range of 10 to 100 µM.

As to `O=C(Nc1cc(-c2cnn(S(=O)(=O)C(F)F)c2)cc2c1C(c1cc(F)ccc1Cl)NC2=O)c1cc(F)cc(C(F)(F)F)c1` (centres unmarked) [Compound I-2055], the IC50 was at most 0.1 µM.

Turning to `O=C1NC(c2cc(F)ccc2Cl)c2c(Nc3cn[nH]c3)cc(Br)cc21` (centres unmarked) [Compound I-2056], the IC50 was in the range of 10 to 100 µM.

`O=C(Nc1cccc2c1[C@@H](CC1CCCCC1)NC2=O)c1cc(F)cc(C(F)(F)F)c1` [Compound I-2057] had a concentration for half-maximal inhibition (IC50) of 1 to 10 µM.

Regarding `O=C(Nc1cccc2c1[C@H](CC1CCCCC1)NC2=O)c1cc(F)cc(C(F)(F)F)c1` [Compound I-2058], the IC50 was in the range of 0.5 to 1 µM.

With `O=C1NC(c2cc(F)ccc2Cl)c2c(Nc3nnc4n3CCCC4)cc(-c3ccc4ncnn4c3)cc21` (centres unmarked) [Compound I-2059], the 50% inhibitory concentration (IC50) was in the range of 10 to 100 µM.

`O=C(Nc1cccc2c1C(C1CCCCC1O)NC2=O)c1cc(F)cc(C(F)(F)F)c1` (centres unmarked) [Compound I-2060] showed an IC50 of 10 to 100 µM.

In the case of `O=C(Nc1cc(OCC(F)F)cc2c1[C@@H](c1cc(F)ccc1Cl)NC2=O)c1cc(F)cc(C(F)(F)F)c1` [Compound I-2061], the IC50 was in the range of 1 to 10 µM.

On to `O=C(Nc1cc(OCC(F)F)cc2c1[C@H](c1cc(F)ccc1Cl)NC2=O)c1cc(F)cc(C(F)(F)F)c1` [Compound I-2062], for which the IC50 is at most 0.1 µM.

For the compound `N#Cc1c(-c2cc(NC(=O)c3cc(F)cc(Cl)c3)c3c(c2)C(=O)N[C@H]3c2cc(F)ccc2Cl)ccc2ncnn12` [Compound I-2063], the concentration for half-maximal inhibition (IC50) lay within 0.5 to 1 µM.

As to `N#Cc1c(-c2cc(NC(=O)c3cc(F)cc(Cl)c3)c3c(c2)C(=O)N[C@@H]3c2cc(F)ccc2Cl)ccc2ncnn12` [Compound I-2064], the IC50 is at most 0.1 µM.

`O=C(Nc1cc(-c2cn3cc(C(F)F)nc3cn2)cc2c1C(c1cc(F)ccc1Cl)NC2=O)c1cc(F)cc(C(F)(F)F)c1` (centres unmarked) [Compound I-2065] yielded a 50% inhibitory concentration (IC50) of at most 0.1 µM.

As to `[2H]c1nc2cnc(-c3cc(NC(=O)c4cc(F)cc(C(F)(F)F)c4)c4c(c3)C(=O)N[C@@H]4c3cc(F)ccc3Cl)cn2n1` [Compound I-2068], the IC50 fell in the range of 1 to 10 µM.

`[2H]c1nc2cnc(-c3cc(NC(=O)c4cc(F)cc(C(F)(F)F)c4)c4c(c3)C(=O)N[C@H]4c3cc(F)ccc3Cl)cn2n1` [Compound I-2069] displayed a concentration for half-maximal inhibition (IC50) of at most 0.1 µM.

Regarding `O=C1N[C@H](c2cc(F)ccc2Cl)c2c(NC(=O)C3(c4cc(F)cc(C(F)(F)F)c4)CCCC3)cc(Br)cc21` [Compound I-2070], the IC50 lay in the range of 10 to 100 µM.

`O=C1N[C@@H](c2cc(F)ccc2Cl)c2c(NC(=O)C3(c4cc(F)cc(C(F)(F)F)c4)CCCC3)cc(Br)cc21` [Compound I-2071] registered an IC50 of 10 to 100 µM.

`O=C(Nc1cccc2c1[C@@H](C1CCC(F)(F)CC1)NC2=O)c1cc(F)cc(C(F)(F)F)c1` [Compound I-2072] displayed an IC50 of 10 to 100 µM.

Turning to `O=C(Nc1cccc2c1[C@H](C1CCC(F)(F)CC1)NC2=O)c1cc(F)cc(C(F)(F)F)c1` [Compound I-2073], the IC50 was in the range of 10 to 100 µM.

Take `O=C(Nc1cccc2c1C(C1NC3CCC1C3)NC2=O)c1cc(F)cc(C(F)(F)F)c1` (centres unmarked) [Compound I-2076]: the IC50 fell in the range of 10 to 100 µM.

Compound `O=C(Nc1cccc2c1C(N1CCC(F)(F)CC1)NC2=O)c1cc(F)cc(C(F)(F)F)c1` (centres unmarked) [Compound I-2077] showed a half-inhibitory concentration (IC50) of 1 to 10 µM.

Compound `O=C1NC(c2cc(F)ccc2Cl)c2c(NC3CCCS(=O)(=O)C3)cc(-c3ccc4ncnn4c3)cc21` (centres unmarked) [Compound I-2078] had an IC50 of 10 to 100 µM.

As to `O=C1NC(c2cc(F)ccc2Cl)c2c(NC(=O)[C@H]3CCC[C@@H](C(F)(F)F)C3)cccc21` (some centres unmarked) [Compound I-2079], the 50% inhibitory concentration (IC50) lay within 0.5 to 1 µM.

`O=C1NC(c2cc(F)ccc2Cl)c2c(NC(=O)[C@H]3C[C@H](O)C[C@@H](C(F)(F)F)C3)cc(Br)cc21` (some centres unmarked) [Compound I-2080]: the IC50 lay in the range of 1 to 10 µM.

`O=C1N[C@@H](c2cc(F)ccc2Cl)c2c(N[C@@H]3CCOc4ccccc43)cc(-c3cnn(C(F)F)c3)nc21` [Compound I-2081] registered a half-inhibitory concentration (IC50) of 1 to 10 µM.

In the case of `O=C1N[C@@H](c2cc(F)ccc2Cl)c2c(N[C@H]3CCOc4ccccc43)cc(-c3cnn(C(F)F)c3)nc21` [Compound I-2082], the 50% inhibitory concentration (IC50) lay within 10 to 100 µM.

In turn, `O=C1N[C@H](c2cc(F)ccc2Cl)c2c(NC(=O)[C@H]3CC[C@@H](C(F)(F)F)C3)cccc21` [Compound I-2083] returned an IC50 of 10 to 100 µM.

With `O=C1N[C@H](c2cc(F)ccc2Cl)c2c(NC(=O)[C@@H]3CC[C@H](C(F)(F)F)C3)cccc21` [Compound I-2084], the IC50 fell in the range of 10 to 100 µM.

On to `O=C1N[C@@H](c2cc(F)ccc2Cl)c2c(NC(=O)[C@H]3CC[C@@H](C(F)(F)F)C3)cccc21` [Compound I-2085], for which the IC50 is 1 to 10 µM.

`O=C1N[C@@H](c2cc(F)ccc2Cl)c2c(NC(=O)[C@@H]3CC[C@H](C(F)(F)F)C3)cccc21` [Compound I-2086] yielded an IC50 of 1 to 10 µM.

Turning to `O=C(Nc1cccc2c1C(c1cc(F)ccc1Cl)NC2=O)c1cc(F)cc(B(O)O)c1` (centres unmarked) [Compound I-2087], the half-inhibitory concentration (IC50) is 10 to 100 µM.

`N#Cc1cc(-c2ccc(=O)[nH]c2)cc2c1C(c1cc(F)ccc1Cl)NC2=O` (centres unmarked) [Compound I-2089] gave an IC50 of 10 to 100 µM.

Take `O=C(Nc1cc(C2=CN3CCN=C3C=C2)cc2c1[C@H](c1cc(F)ccc1Cl)NC2=O)c1cc(F)cc(C(F)(F)F)c1` [Compound I-2090]: the IC50 was at most 0.1 µM.

Regarding `O=C(Nc1cc(C2=CN3CCN=C3C=C2)cc2c1[C@@H](c1cc(F)ccc1Cl)NC2=O)c1cc(F)cc(C(F)(F)F)c1` [Compound I-2091], the IC50 fell in the range of 0.5 to 1 µM.

`O=C(Nc1cc(-c2cnn(S(=O)(=O)C(F)F)c2)cc2c1[C@@H](c1cc(F)ccc1Cl)NC2=O)c1cc(F)cc(C(F)(F)F)c1` [Compound I-2092]: the 50% inhibitory concentration (IC50) lay in the range of 0.1 to 0.5 µM.

Usually IC50 stands for the concentration needed to halve the response being measured. A high value points to a need for much substance.
